In patent US20260152498A1, “4,5,6,7-TETRAHYDRO-1H-PYRAZOLO[4,3-c]PYRIDINE COMPOUNDS AND DERIVATIVES AS USP1 INHIBITORS” (EXELIXIS, INC., priority 2022, published 2026):

What was measured:
USP1-UAF1 complex [1] = target: T1, USP1-UAF1 complex (Homo sapiens, UniProt O94782); conditions: 1.2 µM
Description: (§1) Biochemical Assay: The compounds were evaluated for their potential to inhibit USP1-UAF1 complex (Boston Biochem, Catalog: E568-050) using a fluorescence-based assay. The final concentrations of USP1-UAF1 complex protein and substrate Ubiquitin-Rhodamine-110 (R&D systems, Catalog U-555-050) used in the assay were 0.45 and 150 nM respectively. 50 mM HEPES pH. 7.5, 100 mM NaCl, 0.5 mM EDTA, 1 mM TCEP, 10% BSA, 0.01% Tween 20 buffer was used in the assay. The total assay volume was 20 μL. […] The final DMSO concentration in the assay was 1%. The compounds were pre-incubated with USP1-UAF1 complex at 25° C. for 15 min. After preincubation, required concentration of substrate was added and incubated at 25° C. for 60 min. Fluorescence at Excitation: 485 nm, Emission: 535 nm was measured in Victor-5 from Perkin Elmer.
(§2) To determine IC50 values, dose response curves were generated by plotting percentage inhibition as a function of inhibitor concentration and the data was fitted to sigmoidal non-linear regression equation (variable slope) using Graph Pad prism software V8.
(§3) The compounds were screened by the above-mentioned assay procedure.

USP1-UAF1 complex [2] = target: T1, USP1-UAF1 complex; assay: biochemical
Description: as §1, §2, §3

T1 sequence (O94782 whole entry): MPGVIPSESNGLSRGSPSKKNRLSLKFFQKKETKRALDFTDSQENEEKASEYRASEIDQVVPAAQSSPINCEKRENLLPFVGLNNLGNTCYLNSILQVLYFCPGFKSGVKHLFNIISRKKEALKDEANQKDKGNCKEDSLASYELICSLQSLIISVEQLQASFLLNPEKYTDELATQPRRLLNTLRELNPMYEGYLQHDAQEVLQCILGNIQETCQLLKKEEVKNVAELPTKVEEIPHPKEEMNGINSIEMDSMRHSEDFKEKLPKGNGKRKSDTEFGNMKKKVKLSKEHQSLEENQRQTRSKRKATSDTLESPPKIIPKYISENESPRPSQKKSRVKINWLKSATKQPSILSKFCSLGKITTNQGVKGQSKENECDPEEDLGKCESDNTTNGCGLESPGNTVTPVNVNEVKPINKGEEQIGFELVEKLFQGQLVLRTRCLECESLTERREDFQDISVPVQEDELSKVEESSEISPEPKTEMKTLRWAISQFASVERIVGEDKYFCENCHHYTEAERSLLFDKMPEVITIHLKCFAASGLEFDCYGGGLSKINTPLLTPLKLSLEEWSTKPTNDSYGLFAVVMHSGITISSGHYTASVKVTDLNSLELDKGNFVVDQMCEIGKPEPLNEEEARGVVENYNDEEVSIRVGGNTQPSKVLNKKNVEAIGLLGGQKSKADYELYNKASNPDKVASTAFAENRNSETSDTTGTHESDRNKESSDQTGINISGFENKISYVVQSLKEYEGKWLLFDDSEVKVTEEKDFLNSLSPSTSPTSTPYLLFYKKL
T1 sequence (Q8TAF3 whole entry partner): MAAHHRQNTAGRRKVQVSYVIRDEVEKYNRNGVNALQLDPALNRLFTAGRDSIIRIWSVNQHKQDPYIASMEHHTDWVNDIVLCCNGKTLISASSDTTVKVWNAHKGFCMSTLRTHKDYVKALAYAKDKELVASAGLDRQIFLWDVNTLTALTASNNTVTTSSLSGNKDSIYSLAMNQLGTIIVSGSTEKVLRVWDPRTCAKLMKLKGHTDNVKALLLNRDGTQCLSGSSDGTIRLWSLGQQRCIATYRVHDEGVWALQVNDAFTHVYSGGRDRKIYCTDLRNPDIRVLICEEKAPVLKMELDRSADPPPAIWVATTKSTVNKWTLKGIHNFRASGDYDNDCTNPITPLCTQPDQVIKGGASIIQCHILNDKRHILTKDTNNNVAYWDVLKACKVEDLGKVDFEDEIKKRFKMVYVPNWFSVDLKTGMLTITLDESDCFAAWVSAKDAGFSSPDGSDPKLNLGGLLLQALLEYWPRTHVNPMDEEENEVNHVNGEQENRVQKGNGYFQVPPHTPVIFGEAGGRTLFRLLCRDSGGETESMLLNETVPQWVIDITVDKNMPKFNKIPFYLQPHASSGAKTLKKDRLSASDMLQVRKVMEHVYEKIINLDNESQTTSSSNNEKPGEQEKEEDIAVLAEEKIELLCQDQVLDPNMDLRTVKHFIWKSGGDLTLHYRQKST

Compound	inhibition (USP1-UAF1 complex [1])	IC50 (USP1-UAF1 complex [2])
CC(C)c1ncccc1-c1nn(C)c2c1CN(c1ccc(-c3nc(C(F)(F)F)cn3C)nc1)CC2 [Compound 4, 3-(2-isopropylpyridin-3-yl)-1-methyl-5-(6-(1-methyl-4-(trifluoromethyl)-1H-imidazol-2-yl)pyridin-3-yl)-4,5,6,7-tetrahydro-1H-pyrazolo[4,3-c]pyridine]	81%	> 100 nM
COc1ncnc(C2CC2)c1-c1nn(C)c2c1CN(c1cnc(-n3nc(C(F)(F)F)cc3C)nc1)CC2 [Compound 51, 3-(4-cyclopropyl-6-methoxypyrimidin-5-yl)-1-methyl-5-(2-(5-methyl-3-(trifluoromethyl)-1H-pyrazol-1-yl)pyrimidin-5-yl)-4,5,6,7-tetrahydro-1H-pyrazolo[4,3-c]pyridine]	95%	50 to 100 nM
COc1ncnc(C2CC2)c1-c1n[nH]c2c1CN(c1ccc(-c3nc(C(F)(F)F)cn3C)cn1)CC2 [Compound 54, 3-(4-cyclopropyl-6-methoxypyrimidin-5-yl)-5-(5-(1-methyl-4-(trifluoromethyl)-1H-imidazol-2-yl)pyridin-2-yl)-4,5,6,7-tetrahydro-1H-pyrazolo[4,3-c]pyridine]	91%	> 100 nM
Cc1cnn(C(C)C)c1-c1nn(C)c2c1CN(c1ccc(-c3nc(C(F)(F)F)cn3C)cc1)CC2 [Compound 61, 3-(1-isopropyl-4-methyl-1H-pyrazol-5-yl)-1-methyl-5-(4-(1-methyl-4-(trifluoromethyl)-1H-imidazol-2-yl)phenyl)-4,5,6,7-tetrahydro-1H-pyrazolo[4,3-c]pyridine]	98%	< 50 nM
COc1ncnc(C2CC2)c1-c1nn(C)c2c1CN(c1ccc(-c3nc(C(F)(F)F)cn3C3CNC3)cc1)CC2 [Compound 55, 5-(4-(1-(azetidin-3-yl)-4-(trifluoromethyl)-1H-imidazol-2-yl)phenyl)-3-(4-cyclopropyl-6-methoxypyrimidin-5-yl)-1-methyl-4,5,6,7-tetrahydro-1H-pyrazolo[4,3-c]pyridine]	87%	> 100 nM
CCOc1cc(N2CCc3c(c(-c4c(OC)ncnc4C4CC4)nn3C)C2)ccc1-c1nc(C(F)(F)F)cn1C [Compound 47, 3-(4-cyclopropyl-6-methoxypyrimidin-5-yl)-5-(3-ethoxy-4-(1-methyl-4-(trifluoromethyl)-1H-imidazol-2-yl)phenyl)-1-methyl-4,5,6,7-tetrahydro-1H-pyrazolo[4,3-c]pyridine]	95%	50 to 100 nM
COc1ncnc(C2CC2)c1-c1nn(C)c2c1CN(c1ccc(-c3nc(C(F)(F)F)cn3C)cn1)CC2C (centres unmarked) [Compound 40, 3-(4-cyclopropyl-6-methoxypyrimidin-5-yl)-1,7-dimethyl-5-(5-(1-methyl-4-(trifluoromethyl)-1H-imidazol-2-yl)pyridin-2-yl)-4,5,6,7-tetrahydro-1H-pyrazolo[4,3-c]pyridine]	97%	50 to 100 nM
COc1ncnc(C2CC2)c1-c1nn(C)c2c1CN(c1ccc(-c3nc(C(F)(F)F)cn3C)nc1)CC2(C)C [Compound 42, 3-(4-cyclopropyl-6-methoxypyrimidin-5-yl)-1,7,7-trimethyl-5-(6-(1-methyl-4-(trifluoromethyl)-1H-imidazol-2-yl)pyridin-3-yl)-4,5,6,7-tetrahydro-1H-pyrazolo[4,3-c]pyridine]	96%	50 to 100 nM
COc1ncnc(C2CC2)c1-c1nn(C)c2c1CN(c1ccc(-n3nc(C(F)(F)F)cc3OC)cc1)CC2 [Compound 19, 3-(4-cyclopropyl-6-methoxypyrimidin-5-yl)-5-(4-(5-methoxy-3-(trifluoromethyl)-1H-pyrazol-1-yl)phenyl)-1-methyl-4,5,6,7-tetrahydro-1H-pyrazolo[4,3-c]pyridine]	99%	< 50 nM
COc1ncnc(C2CC2)c1-c1nn(C)c2c1CN(c1ccc(-c3nc(C(F)(F)F)cn3CCN(C)C)cc1)CC2 [Compound 10, 2-(2-(4-(3-(4-cyclopropyl-6-methoxypyrimidin-5-yl)-1-methyl-1,4,6,7-tetrahydro-5H-pyrazolo[4,3-c]pyridin-5-yl)phenyl)-4-(trifluoromethyl)-1H-imidazol-1-yl)-N,N-dimethylethan-1-amine]	88%	> 100 nM
COc1ncnc(C2CC2)c1-c1nn(C)c2c1CN(c1ccc(-n3nc(C(F)(F)F)cc3C)cc1)CC2 [Compound 17, 3-(4-cyclopropyl-6-methoxypyrimidin-5-yl)-1-methyl-5-(4-(5-methyl-3-(trifluoromethyl)-1H-pyrazol-1-yl)phenyl)-4,5,6,7-tetrahydro-1H-pyrazolo[4,3-c]pyridine]	100%	< 50 nM
CCn1nc(-c2c(OC)ncnc2C2CC2)c2c1CCN(c1ccc(-c3nc(C(F)(F)F)cn3C)cn1)C2 [Compound 26, 3-(4-cyclopropyl-6-methoxypyrimidin-5-yl)-1-ethyl-5-(5-(1-methyl-4-(trifluoromethyl)-1H-imidazol-2-yl)pyridin-2-yl)-4,5,6,7-tetrahydro-1H-pyrazolo[4,3-c]pyridine]	90%	> 100 nM
CCOc1ncnc(C2CC2)c1-c1nn(C)c2c1CN(c1ccc(-c3nc(C(F)(F)F)cn3C)cc1)CC2 [Compound 58, 3-(4-cyclopropyl-6-ethoxypyrimidin-5-yl)-1-methyl-5-(4-(1-methyl-4-(trifluoromethyl)-1H-imidazol-2-yl)phenyl)-4,5,6,7-tetrahydro-1H-pyrazolo[4,3-c]pyridine]	98%	< 50 nM
